The values that follow come from ChEMBL document CHEMBL1201862, “PubChem BioAssay data set” (2004).

SMILES strings stand for the structures.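 Each compound was tested at five concentrations against cells in 96-well plates for 48 hours. GI50: concentration for 50% inhibition of growth.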 Active and inactive are the calls of the source. Rule as the data show it: active = GI50 up to about 1.1 µM and inactive = higher.

Test systems include HL-60; A549; HOP-92; LOX IMVI; PC-3; T47D; RPMI-8226; MDA-MB-231; DU-145; OVCAR-3; UO-31; MDA-N; K562; SF-268; MDA-MB-435; NCI-H226; UACC-62; 786-0; SW-620; MCF7.
What all share (assay): DTP human tumour cell line panel, 48 h

By GI50 is commonly meant the concentration at which growth is held to half of that of the control. Take `O=C1OC(C2Cc3ccc4ccccc4c3C2=O)c2ccccc21` (stereo not given): the GI50 is 50 µM (inactive) in the experiment on HL-60; 36.9 µM (inactive) in the experiment on A549; 49.8 µM (inactive) in the experiment with HOP-92; 38 µM (inactive) in the experiment with LOX IMVI; 48.8 µM (inactive) with PC-3; 63 µM (inactive) in the experiment on T47D. The GI50 with RPMI-8226 is 25.9 µM (inactive); in the experiment on MDA-MB-231 it was > 100 µM (inactive); with DU-145 it was > 100 µM (inactive); with OVCAR-3, 30.5 µM (inactive); with UO-31, 71.3 µM (inactive); in the experiment on MDA-N, 57.5 µM (inactive). Also, the GI50 was 57.7 µM (inactive) in the experiment with K562; 33.8 µM (inactive) in the experiment on SF-268; 51.9 µM (inactive) in the experiment with MDA-MB-435; 19.5 µM (inactive) with NCI-H226; 33.7 µM (inactive) with UACC-62; 46.3 µM (inactive) with 786-0. The results for the GI50 with SW-620 and with MCF7 were 37.8 µM (inactive) and 42.8 µM (inactive), respectively.
For the molecule `O=C1OC(c2ccccc2)=N/C1=C\c1ccc([N+](=O)[O-])cc1`, the GI50 in the experiment on HL-60 is 24.4 µM (inactive); in the experiment with A549, 82 µM (inactive); with HOP-92, 16.1 µM (inactive); in the experiment on LOX IMVI, 26.4 µM (inactive); in the experiment with PC-3, > 100 µM (inactive); with T47D, 22.3 µM (inactive). In addition, the GI50 was 30.2 µM (inactive) in the experiment on RPMI-8226; 44.6 µM (inactive) with MDA-MB-231; 47.4 µM (inactive) with DU-145; 57.4 µM (inactive) with OVCAR-3; 50.7 µM (inactive) in the experiment on UO-31; > 100 µM (inactive) with MDA-N. The GI50 in the experiment on K562 was > 100 µM (inactive); in the experiment on SF-268 it was 32.8 µM (inactive); with MDA-MB-435, > 100 µM (inactive); in the experiment on NCI-H226, 3.96 µM (inactive); in the experiment on UACC-62, 26.5 µM (inactive); with 786-0, 26.9 µM (inactive). Also, the figures for the GI50 with SW-620 and in the experiment with MCF7 were > 100 µM (inactive) and 60 µM (inactive), respectively.
As to `CCCCCOC(=O)c1cc2cc(CCl)ccc2oc1=O`, the GI50 in the experiment with HL-60 was 0.552 µM (active); in the experiment with A549, 1.97 µM (inactive); with HOP-92, 2.62 µM (inactive); in the experiment with LOX IMVI it was 14.4 µM (inactive); in the experiment on PC-3, 4.07 µM (inactive); in the experiment with T47D, 4.55 µM (inactive). Besides, the GI50 with RPMI-8226 was 18.9 µM (inactive); in the experiment with MDA-MB-231, 16.5 µM (inactive); in the experiment with DU-145, 3.86 µM (inactive); in the experiment on OVCAR-3, 2.82 µM (inactive); with UO-31 it was 2.06 µM (inactive); in the experiment with MDA-N, 2.92 µM (inactive). In addition, the GI50 in the experiment on K562 is 3.79 µM (inactive); with SF-268, 13.2 µM (inactive); in the experiment with MDA-MB-435 it was 1.85 µM (inactive); in the experiment on NCI-H226, 15.7 µM (inactive); with UACC-62 it was 1.64 µM (inactive); with 786-0 it was 3.02 µM (inactive). The GI50 is 12.1 µM (inactive) with SW-620 and 10.4 µM (inactive) in the experiment with MCF7.
As to `CCCCCC(O)C1C(=O)OC(C)C(O)/C=C/C=C/C=C/C=C\C=C(\C)C(O)CC(O)CC(O)CC(O)CC(O)CC(O)CC1O` (stereo not given), the GI50 in the experiment with HL-60, in the experiment on A549, in the experiment with HOP-92, in the experiment with LOX IMVI, with PC-3 and in the experiment with T47D was > 50 µM (inactive) throughout. Besides, the GI50 with RPMI-8226, in the experiment on MDA-MB-231, in the experiment on DU-145, in the experiment on OVCAR-3, in the experiment on UO-31 and in the experiment on MDA-N was > 50 µM (inactive) throughout. The GI50 in the experiment on K562, with SF-268, with MDA-MB-435, in the experiment with NCI-H226, in the experiment with UACC-62 and in the experiment with 786-0 was > 50 µM (inactive) each time. The GI50 in the experiment on SW-620 and in the experiment with MCF7 was > 50 µM (inactive) each time.
Turning to `CSc1nc(C)c2c(n1)SCC2`, the GI50 with HL-60, in the experiment with A549, in the experiment on HOP-92, in the experiment on LOX IMVI, with PC-3 and with T47D was > 10 µM (inactive) in each case. Besides, the GI50 in the experiment with RPMI-8226, with MDA-MB-231, with DU-145, in the experiment on OVCAR-3, with UO-31 and with MDA-N was > 10 µM (inactive) in each case. In addition, the GI50 with K562, in the experiment with SF-268, in the experiment on MDA-MB-435, in the experiment on NCI-H226, in the experiment on UACC-62 and with 786-0 was > 10 µM (inactive) throughout. The GI50 in the experiment on SW-620 and in the experiment on MCF7 was > 10 µM (inactive) each time.
For `C=C1C[C@@H]2CC[C@@]34CC5O[C@H]6C(O[C@H]7CC[C@H](CC(=O)O[C@@H]8[C@@H](C)[C@@H]9O[C@@H]%10C[C@]%11(C[C@@H]%12O[C@]%13(C[C@H](C)[C@@H]%14O[C@@H]%15CC(C(O)CO)O[C@@H]%15C[C@@H]%14O%13)C[C@H](C)[C@@H]%12O%11)O[C@@H]%10C[C@@H]9O[C@H]8CC8O[C@@H](CC[C@@H]1O2)C[C@@H](C)C8(O)CO)O[C@@H]7[C@@H]6O3)[C@H]5O4` (stereo not given in full), the 50% growth inhibitory concentration (GI50) with HL-60 is > 1 µM (active); with A549, > 0.891 µM (active); in the experiment with HOP-92, > 0.615 µM (active); with LOX IMVI, 0.48 µM (active); in the experiment with PC-3 it was 0.995 µM (active); in the experiment on T47D, > 1 µM (active). Besides, the GI50 with RPMI-8226 is > 0.849 µM (active); with MDA-MB-231 it was > 1 µM (active); with DU-145 it was > 0.916 µM (active); in the experiment on OVCAR-3 it was 0.594 µM (active); in the experiment with UO-31 it was > 1 µM (active); with MDA-N it was 0.288 µM (active). In addition, the GI50 was > 0.933 µM (active) in the experiment with K562; > 1 µM (active) in the experiment with SF-268; 0.294 µM (active) in the experiment on MDA-MB-435; 0.986 µM (active) in the experiment with NCI-H226; 0.481 µM (active) in the experiment on UACC-62; 0.804 µM (active) with 786-0. For the same molecule, the 50% growth inhibitory concentration (GI50) in the experiment on SW-620 was > 0.736 µM (active); in the experiment with MCF7 it was 0.579 µM (active).
Take `O=C(NC(OCc1ccccc1)(C(F)(F)F)C(F)(F)F)OCc1ccccc1`: the GI50 with HL-60 was 17.1 µM (inactive); in the experiment on A549 it was 15 µM (inactive); with HOP-92, 14.7 µM (inactive); in the experiment with LOX IMVI, 14.5 µM (inactive); in the experiment with PC-3 it was 13.8 µM (inactive); in the experiment on T47D it was 15.7 µM (inactive). Further, the GI50 in the experiment with RPMI-8226 was 16.4 µM (inactive); with MDA-MB-231 it was 17.7 µM (inactive); with DU-145 it was 16.6 µM (inactive); with OVCAR-3, 15.3 µM (inactive); in the experiment with UO-31, 11.2 µM (inactive); in the experiment on MDA-N, 15.2 µM (inactive). Further, the GI50 in the experiment with K562 is 17.1 µM (inactive); in the experiment with SF-268 it was 18.2 µM (inactive); in the experiment with MDA-MB-435, 17.3 µM (inactive); in the experiment with NCI-H226, 14.1 µM (inactive); in the experiment on UACC-62, 13.9 µM (inactive); in the experiment on 786-0, 16.5 µM (inactive). Besides, the GI50 with SW-620 is 17.3 µM (inactive); with MCF7, 16.4 µM (inactive).
Consider `CCOC(=O)/C=C/C1(CCOC(C)=O)CCCCC1`, for which the GI50 with HL-60, with A549, in the experiment on HOP-92, with LOX IMVI, in the experiment on PC-3 and in the experiment on T47D was > 10 µM (inactive) throughout. In addition, the GI50 in the experiment with RPMI-8226, with MDA-MB-231, with DU-145, in the experiment on OVCAR-3, in the experiment with UO-31 and in the experiment with MDA-N was > 10 µM (inactive) in each case. The GI50 in the experiment on K562, in the experiment on SF-268, in the experiment on MDA-MB-435, in the experiment on NCI-H226, in the experiment on UACC-62 and in the experiment with 786-0 was > 10 µM (inactive) in each case. Besides, the GI50 in the experiment on SW-620 and with MCF7 was > 10 µM (inactive) in each case.
For `CCOC(=O)c1c(N/C(S)=N/c2ccccc2)sc2c1CCOC2`, the GI50 with HL-60 was 24 µM (inactive); in the experiment on A549, 53.1 µM (inactive); in the experiment on HOP-92, 24.9 µM (inactive); in the experiment on LOX IMVI, 52.7 µM (inactive); in the experiment with PC-3, 61.2 µM (inactive); with T47D, 24 µM (inactive). Further, the GI50 with RPMI-8226 was 55.5 µM (inactive); with MDA-MB-231 it was > 100 µM (inactive); in the experiment on DU-145, 80.5 µM (inactive); in the experiment on OVCAR-3 it was 87.9 µM (inactive); in the experiment with UO-31, 45.9 µM (inactive); in the experiment on MDA-N, 50.1 µM (inactive). For the same molecule, the GI50 is > 100 µM (inactive) in the experiment with K562; 64.1 µM (inactive) with SF-268; 56.6 µM (inactive) with MDA-MB-435; > 100 µM (inactive) with NCI-H226; 28.9 µM (inactive) in the experiment with UACC-62; > 100 µM (inactive) with 786-0. Moreover, the results for the GI50 in the experiment with SW-620 and with MCF7 were > 100 µM (inactive) and 33 µM (inactive), respectively.
For `Nc1ncnc2c1ncn2C1OC(C(=O)OCCO)C(O)C1O` (stereo not given), the GI50 in the experiment on HL-60, in the experiment with A549, in the experiment on HOP-92, in the experiment with LOX IMVI, in the experiment with PC-3 and with T47D was > 100 µM (inactive) throughout. Also, the GI50 with RPMI-8226, in the experiment on MDA-MB-231, in the experiment on DU-145, in the experiment with OVCAR-3, in the experiment on UO-31 and with MDA-N was > 100 µM (inactive) throughout. The GI50 in the experiment on K562, in the experiment with SF-268, with MDA-MB-435, in the experiment on NCI-H226, with UACC-62 and with 786-0 was > 100 µM (inactive) throughout. The GI50 with SW-620 and with MCF7 was > 100 µM (inactive) each time.
